39 compounds from patent US5637731A (priority 1996, dated 1997) can be followed below.

Molecules are shown by their SMILES. “And” between values parts separate entries of the source, which are not always exact repeats. Identical values can stand only once. Counter-ions that a name gives are not always drawn. Like-named read-outs stand apart in the source and are kept apart here.

As usually defined, the Ki is a dissociation constant, usually derived from enzyme kinetics or from competition with a known ligand.

Experiment [1] deals with muscarinic cholinergic receptor. The experiment is classed as binding, rat. The settings on record: rat cerebral cortex, ^3 H-QNB 0.25 nM, 25° C., 120 minutes, pH 7.4.
For experiment [2] the target is unchanged. Nature of the experiment: [^3 H]-Cis-methyldioxolane (^3 H-CD) Binding Assay (High Affinity). The settings on record: rat cerebral cortex, ^3 H-CD 1.0 nM, 25° C., 120 minutes, pH 7.4; high affinity agonist binding.

On to `CN(C)CC#CCN1CC[C@H](OC(=O)C(C)(C)C)C1=O` [(S)-2,2-Dimethylpropanoic acid 1-[4-(dimethylamino)-2-butynyl]-2-oxo-3-pyrrolidinyl ester], for which the Ki in experiment [1] came to 484000 nM; in experiment [2], 38800 nM.
For `COC(=O)O[C@H]1CCN(CC#CCN(C)C)C1=O` [(S)-Carbonic acid 1-[4-(dimethylamino)-2-butynyl]-2-oxo-3-pyrrolidinyl methyl ester], in that order: 15100 nM and 2160 nM.
The corresponding values for `CCCCCCCCOC(=O)O[C@@H]1CCN(CC#CCN(C)C)C1=O` [(R)-Carbonic acid 1-[4-(dimethylamino)-2-butynyl]-2-oxo-3-pyrrolidinyl octyl ester] are 1500 nM and 1040 nM.
For `O=C1[C@@H](O)CCN1CC#CCN1CCC[C@@H]1CO` [[S-(R*,S*)]-3-Hydroxy-1-[4-[2-(hydroxymethyl)-1-pyrrolidinyl]-2-butynyl]-2-pyrrolidinone], in that order: over 100000 nM and 2600 nM.
For the compound `CC(=O)O[C@@H]1CCN(CC#CCN2CCC[C@H]2CO[Si](C)(C)C(C)(C)C)C1=O` [[R-(R*,S*)]-3-(Acetoxy)-1-[4-[2-[[[(1,1-dimethylethyl)dimethylsilyl]oxy]methyl]-1-pyrrolidinyl]-2-butynyl]-1]-2-pyrrolidinone], the Ki was found to be 500000 nM in experiment [1] and 1700 nM in experiment [2].
For `O=C1[C@@H](O)CCN1CC#CCN1CCCC1` [(S)-3-Hydroxy-1-[4-(1-pyrrolidinyl)-2-butynyl]-2-pyrrolidinone], in that order: 1700 nM and 7 nM.
For `CC(C)C(=O)O[C@H]1CCN(CC#CC[N+](C)(C)C)C1=O` [(S)-N,N, N-Trimethyl-4-[3-(2-methyl-1-oxopropoxy)-2-oxo-1-pyrrolidinyl]-2-butyn-1-aminium iodide], in that order: 64300 nM and 6960 nM.
For `CCCCCCCCCC(=O)O[C@H]1CC(=O)N(CC#CCN2CCCC2)C1` [(S)-Decanoic acid 2-oxo-1-[4-(1-pyrrolidinyl)-2-butynyl]-4-pyrrolidinyl ester], in that order: 35 nM and 330 nM.
Turning to `O=C1[C@@H](O)CCN1CC#CCn1ccnc1` [(S)-3-Hydroxy-1-[4(1H-imidazol-1-yl)-2-butynyl]-2-pyrrolidinone], the Ki in experiment [1] was over 100000 nM; in experiment [2] it was 120 nM.
The corresponding values for `CN(C)CC#CCN1CC[C@H](N)C1=O` [(S)-3-Amino-1-[4-(dimethylamino)-2-butynyl]-2-pyrrolidinone dihydrochloride] are over 100000 nM and 2600 nM.
In the case of `CCN(CC)CC#CCN1CCC(C)C1=O` (racemic) [Racemic 1-[4-(1-Diethylamino)-2-butynyl]-3-methyl-2-pyrrolidinone], the Ki in experiment [1] stood at 6000 nM; in experiment [2], 5100 nM.
The corresponding values for `CCCCCCCCCC(=O)O[C@@H]1CCN(CC#CCN2CCCC2)C1=O` [(R)-Decanoic acid 2-oxo-1-[4-(1-pyrrolidinyl)-2-butynyl]-3-pyrrolidinyl ester] are 200 nM and 97 nM.
With `CCCCCCCCNC(=O)O[C@@H]1CCN(CC#CCN(C)C)C1=O` [(R)-Octylcarbamic acid 1-[4-(dimethylamino)-2-butynyl]-2-oxo-2-pyrrolidinyl ester], the Ki in experiment [1] is 32000 nM; in experiment [2], 1430 nM.
For `CC(C)C(=O)O[C@H]1CCN(CC#CCN2CCCC2)C1=O` [(S)-2-Methylpropanoic acid 2-oxo-1-[4-(1-pyrrolidinyl)-2-butynyl]-3-pyrrolidinyl ester], in that order: 7200 nM and 162 nM.
The corresponding values for `CN(C)CC#CCN1CC[C@@H](N)C1=O` [(R)-3-Amino-1-[4-(dimethylamino)-2-butynyl]-2-pyrrolidinone dihydrochloride] are over 100000 nM and 890 nM.
The corresponding values for `CN(C)CC#CCNC(=O)C(F)(F)F` [N-[4-Dimethylamino)-2-butynyl]-2,2,2-trifluoroacetamide monomhydrochloride] are over 100000 nM and 6100 nM.
As for `C[N+](C)(C)CC#CCN1CC[C@H](N=[N+]=[N-])C1=O` [(S)-4-(3-Azido-2-oxo-1-pyrrolidinyl)-N,N,N-trimethyl-2-butyn-1-aminium iodide], the Ki in experiment [1] was found to be 1600 nM; in experiment [2] it was 45 nM.
For `CC(C)(C)C(=O)O[C@@H]1CCN(CC#CCN2CCCC2)C1=O` [(R)-2,2-Dimethylpropanoic acid 2-oxo-1-[4-(1-pyrrolidinyl)-2-butynyl]-3-pyrrolidinyl ester], in that order: 10200 nM and 500 nM.
Consider `CS[C@H]1CCN(CC#CCN2CCCC2)C1=O` [(S)-3-(Methylthio)-1-[4-(1-pyrrolidinyl)-2-butynyl]-2-pyrrolidinone], for which the Ki is 53000 nM in experiment [1] and 1040 nM in experiment [2].
For `O=C1[C@H](O)CCN1CC#CCN1CCCC1` [(R)-3-Hydroxy-1-[4-(1-pyrrolidinyl)-2-butynyl]-2-pyrrolidinone], in that order: 3400 nM and 125 nM.
For `CC(C)(C)[Si](C)(C)O[C@H]1CCN(CC#CCn2ccnc2)C1=O` [(S)-3-[[(1,1-Dimethylethyl)dimethylsilyl]oxy]-1-[4-(1H-imidazol-1-yl)-2-butynyl]-2-pyrrolidinone], the results for the inhibitory constant (Ki) in experiment [1] and in experiment [2] were over 100000 nM and 24300 nM, respectively.
The corresponding values for `CC(C)C(=O)O[C@@H]1CCN(CC#CCN2CCCC2)C1=O` [(R)-2-Methylpropanoic acid 2-oxo-1-[4-(1-pyrrolidinyl)-2-butynyl]-3-pyrrolidinyl ester] are 87000 nM and 135 nM.
For `CN(CC#CCN1CC[C@H](O)C1=O)CCCCO` [(S)-3-Hydroxy-1-[4-[(4-hydroxybutyl)methylamino]-2-butynyl]-2-pyrrolidinone], in that order: over 100000 nM and 1300 nM.
The corresponding values for `O=C(NCC#CCN1CCCC1)C(F)(F)F` [2,2,2-Trifluoro-N-[4-(1-pyrrolidinyl)-2-butynyl]acetamide monohydrochloride] are 18500 nM and 8880 nM.
As for `CC(=O)O[C@H]1CCN(CC#CCN2CCC[C@H]2CO[Si](C)(C)C(C)(C)C)C1=O` [[S-(R*,R*)]-3-(Acetyloxy)-1-[4-[2-[[[(1,1-dimethylethyl)-dimethylsilyl]oxy]methyl]-1-pyrrolidinyl]-2-butynyl]-2-pyrrolidinone], the Ki was 2600 nM in experiment [1] and 79 nM in experiment [2].
For `C[N+](C)(C)CC#CCN1CC[C@@H](N=[N+]=[N-])C1=O` [(R)-4-(3-Azido-2-oxo-1-pyrrolidinyl)-N,N,N-trimethyl-2-butyn-1-aminium iodide], in that order: 800 nM and 39 nM.
As for `CCCCCCCCNC(=O)O[C@@H]1CCN(CC#CC[N+](C)(C)C)C1=O` [(R)-N,N, N-Trimethyl-4-[3-[[(octylamino)carbonyl]oxy]-2-oxo-1-pyrrolidinyl]-2-butyn-1-aminium iodide], the Ki in experiment [1] came out at 500 nM; in experiment [2] it was 490 nM.
For `O=C(OCc1ccccc1)O[C@@H]1CCN(CC#CCN2CCCC2)C1=O` [(R)-Carbonic acid 2-oxo-1-[4-(1-pyrrolidinyl)-2-butynyl]-3-pyrrolidinyl phenylmethyl ester], in that order: 1400 nM and 110 nM.
For `CN(C)CC#CCN1CC[C@@H](O)C1=O` [(R)-1-[4-Dimethylamino)-2-butynyl-3-hydroxy-2-pyrrolidinone], in that order: 105000 nM and 540 nM.
The corresponding values for `CN(CC#CCN1CC[C@@H](O)C1=O)CCCCO` [(R)-3-Hydroxy-1-[4-[(4-hydroxybutyl)methylamino]-2-butynyl]-2-pyrrolidinone] are over 100000 nM and 1450 nM.
For the compound `CC(C)(C)C(=O)O[C@H]1CCN(CC#CCN2CCCC2)C1=O` [(S)-2,2-Dimethylpropanoic acid 2-oxo-1-[4-(1-pyrrolidinyl)-2-butynyl]-3-pyrrolidinyl ester], the inhibition constant Ki in experiment [1] was determined as 4600 nM; in experiment [2], 370 nM.
`CN(C)CC#CCN1CC[C@@H](OC(=O)C(C)(C)C)C1=O` [(R)-2,2-Dimethylpropanoic acid 1-[4-(dimethylamino)-2-butynyl]-2-oxo-3-pyrrolidinyl ester] returned a Ki in experiment [1] of 404000 nM.
`CCCCCCCCOC(=O)O[C@@H]1CCN(CC#CCN2CCCC2)C1=O` [(R)-Carbonic acid octyl 2-oxo-1-[4-(1-pyrrolidinyl)-2-butynyl]-3-pyrrolidinyl ester]: the Ki stood at 100 nM in experiment [1] and 76 nM in experiment [2].
With `COC(=O)O[C@@H]1CCN(CC#CCN2CCCC2)C1=O` [(R)-Carbonic acid methyl 2-oxo-1-[4-(1-pyrrolidinyl)-2-butynyl]-3-pyrrolidinyl ester], the values for the Ki in experiment [1] and in experiment [2] were 27300 nM and 350 nM, respectively.
Take `C[C@@H]1CCN(CC#CCN(C)C)C1=O` [(R)-1-[4-(Dimethylamino)-2-butynyl]-3-methyl-2-pyrrolidinone]: the Ki in experiment [1] was determined as 7700 nM; in experiment [2], 73 nM.
In the case of `CC(C)(C)[Si](C)(C)O[C@@H]1CCN(CC#CCN2CCC2)C1=O` [(R)-1-[4-(1-Azetidinyl)-2-butynyl]-3-[[(1,1-dimethylethyl)dimethylsilyl]oxy]-2-pyrrolidinone], the Ki in experiment [1] and in experiment [2] was over 100000 nM each time.
For the compound `CCCCCCCCNC(=O)O[C@@H]1CCN(CC#CCN2CCCC2)C1=O` [(R)-Octylcarbamic acid 2-oxo-1-[4-(1-pyrrolidinyl)-2-butynyl]-3-pyrrolidinyl ester], the figures for the Ki in experiment [1] and in experiment [2] were 200 nM and 240 nM, respectively.
Take `CC(C)C(=O)O[C@H]1CCN(CC#CCN(C)C)C1=O` [(S)-2-Methylpropanoic acid 1-[4-(dimethylamino)-2-butynyl]-2-oxo-3-pyrrolidinyl ester]: the Ki in experiment [1] worked out at 610000 nM.
The same measure, in the same setting: under `COC(=O)O[C@H]1CCN(CC#CCN2CCCC2)C1=O` [(S)-Carbonic acid methyl 2-oxo-1-[4-(1-pyrrolidinyl)-2-butynyl]-3-pyrrolidinyl ester] stands 5400 nM and 10400 nM.
